What was measured:
[1] = biological target: T1, human mGlu2 receptor (Homo sapiens, UniProt Q14416); experiment: [35S]GTPγS binding assay, mGluR2 PAM; type: biochemical; conditions: in presence of glutamate at EC20; EC50 expressed in M; read-out: GTPγS - hmGluR2 PAM pEC50 (converted)
T1 construct: expressed in transfected cells; host or cells: CHO cells
Procedure: [^35S]GTPγS Binding Assay
The [^35S]GTPγS binding assay is a functional membrane-based assay used to study G-protein coupled receptor (GPCR) function whereby incorporation of a non-hydrolysable form of GTP, [^35S]GTPγS (guanosine 5′-triphosphate, labelled with […] ^35S), is measured.
Cells were then collected by scraping in PBS and cell suspension was centrifuged (10 min at 4000 RPM in benchtop centrifuge). Supernatant was discarded and pellet gently resuspended in 50 mM Tris-HCl, pH 7.4 by mixing with a vortex and pipetting up and down. The suspension was centrifuged at 16,000 RPM (Sorvall RC-5C plus rotor SS-34) for 10 minutes and the supernatant discarded. The pellet was homogenized in 5 mM Tris-HCl, pH 7.4 using an ultra-turrax homogenizer and centrifuged again (18,000 RPM, 20 min, 4° C.). The final pellet was resuspended in 50 mM Tris-HCl, pH 7.4 and stored at −80° C. in appropriate aliquots before use. Protein concentration was determined by the Bradford method (Bio-Rad, USA) with bovine serum albumin as standard.
Measurement of mGluR2 positive allosteric modulatory activity of test compounds was performed as follows. Test compounds and glutamate were diluted in assay buffer containing 10 mM HEPES acid, 10 mM HEPES salt, pH 7.4, 100 mM NaCl, 3 mM MgCl2 and 10 μM GDP. Human mGlu2 receptor-containing membranes were thawed on ice and diluted in assay buffer supplemented with 14 μg/ml saponin. Membranes were pre-incubated with compound alone or together with a predefined (˜EC20) concentration of glutamate (PAM assay) for 30 min at 30° C. After addition of [^35S]GTPγS (f c. 0.1 nM), assay mixtures were shaken briefly and further incubated to allow [^35S]GTPγS incorporation on activation (30 minutes, 30° C.). Final assay mixtures contained 7 μg of membrane protein in 10 mM HEPES acid, 10 mM HEPES salt, pH 7.4, 100 mM NaCl, 3 mM MgCl2, 10 μM GDP and 2 μg/ml saponin. […] Filters were washed 6 times with ice-cold 10 mM NaH2PO4/10 mM Na2HPO4, pH 7.4. Filters were then air-dried, and 40 μl of liquid scintillation cocktail (Microscint-O) was added to each well. Membrane-bound radioactivity was counted in a Microplate Scintillation and Luminescence Counter from Perkin Elmer.
The concentration-response curves of representative compounds of the present invention—obtained in the presence of EC20 of mGluR2 agonist glutamate to determine positive allosteric modulation (PAM)—were generated using the Lexis software interface (developed at J&J). Data were calculated as % of the control glutamate response, defined as the maximal response that is generated upon addition of glutamate alone. Sigmoid concentration-response curves plotting these percentages versus the log concentration of the test compound were analyzed using non-linear regression analysis. The concentration producing half-maximal effect is then calculated as EC50.
The pEC50 values below were calculated as the −log EC50, when the EC50 is expressed in M. Emax is defined as relative maximal effect (i.e. maximal % effect relative to the control glutamate response).
All compounds were tested in presence of mGluR2 agonist glutamate at a predetermined EC20 concentration, to determine positive allosteric modulation. pEC50 values were calculated from a concentration-response experiment of at least 8 concentrations.

[2] = test system: Adult male CF No 1 albino mice; experiment: 6 Hz psychomotor seizure test in mice; type: in vivo; conditions: 10 mg/kg p.o.
Procedure: Test compounds were administered using an optimal fluid volume to body fluid ratio. Test compounds were administered to mice in a volume of 0.01 ml/g of body weight (White, H. S., et al., General principles: Experimental selection, quantification, and evaluation of antiepileptic drugs, in Antiepileptic Drugs, Fourth Edition, R. H. Levy, R. H. Mattson, and B. S. Meldrum, Editors. 1995, Raven Press, Ltd.: New York. p. 99-110). The test compound number 6 was administered orally (p.o.). For each of the tests performed on the test compound, a 40% Hydroxypropyl-β-cyclodextrin (Hp-β-CD) stock solution was first prepared and utilized for formulating the test compound number 6 at the desired concentrations for testing via the oral (p.o.) route. Final compound concentrations were administered as suspensions in 20% Hp-β-CD. A 20% Hp-β-CD solution was used for the vehicle groups.
Adult male CF No 1 albino mice (26-35 g) were obtained from Charles River, Portage, Mich. The animals were maintained on an adequate diet (Prolab RMH 3000) and allowed free access to food and water, except during the short time they were removed from their cage for testing. Animals newly received in the laboratory were allowed sufficient time to correct for possible food and water restriction incurred during transit before being employed in testing. All mice were housed in plastic cages in specially constructed rooms with controlled humidity, exchange of air and controlled lighting (12 hours on-12 hours off). The animals were housed, fed, and handled in a manner consistent with the recommendations in the National Council Publication, “Guide for the Care and Use of Laboratory animals.” Experimental Design General Methods Minimal Motor Impairment (MMI):
Groups of four animals each were administered test compounds and each group was tested at one of five time points: 0.25, 0.5, 1, 2, or 4 h post-treatment (White et al. 1995). TPE was determined using the 6 Hz (32 mA) assay. The time (0.25, 0.5, 1, 2, or 4 h post-treatment) at which maximal protection was observed was considered the Time of Peak Effect (TPE). At the TPE determined for this study, or determined previously, compounds were tested in the 6 Hz assay (32 and/or 44 mA), across several doses and comprising doses that elicited little or no protection to full protection. […] Serum Collection for pK/pD Analysis: In various tests, animals were sacrificed following testing, and trunk blood and/or brain tissue (whole brains) was collected for quantification of drug levels. Immediately after testing, animals were decapitated and trunk blood was collected into a BD Vacutainer® tube containing K2EDTA and chilled on ice until centrifugation. […]

T1 sequence (Q14416 19-872): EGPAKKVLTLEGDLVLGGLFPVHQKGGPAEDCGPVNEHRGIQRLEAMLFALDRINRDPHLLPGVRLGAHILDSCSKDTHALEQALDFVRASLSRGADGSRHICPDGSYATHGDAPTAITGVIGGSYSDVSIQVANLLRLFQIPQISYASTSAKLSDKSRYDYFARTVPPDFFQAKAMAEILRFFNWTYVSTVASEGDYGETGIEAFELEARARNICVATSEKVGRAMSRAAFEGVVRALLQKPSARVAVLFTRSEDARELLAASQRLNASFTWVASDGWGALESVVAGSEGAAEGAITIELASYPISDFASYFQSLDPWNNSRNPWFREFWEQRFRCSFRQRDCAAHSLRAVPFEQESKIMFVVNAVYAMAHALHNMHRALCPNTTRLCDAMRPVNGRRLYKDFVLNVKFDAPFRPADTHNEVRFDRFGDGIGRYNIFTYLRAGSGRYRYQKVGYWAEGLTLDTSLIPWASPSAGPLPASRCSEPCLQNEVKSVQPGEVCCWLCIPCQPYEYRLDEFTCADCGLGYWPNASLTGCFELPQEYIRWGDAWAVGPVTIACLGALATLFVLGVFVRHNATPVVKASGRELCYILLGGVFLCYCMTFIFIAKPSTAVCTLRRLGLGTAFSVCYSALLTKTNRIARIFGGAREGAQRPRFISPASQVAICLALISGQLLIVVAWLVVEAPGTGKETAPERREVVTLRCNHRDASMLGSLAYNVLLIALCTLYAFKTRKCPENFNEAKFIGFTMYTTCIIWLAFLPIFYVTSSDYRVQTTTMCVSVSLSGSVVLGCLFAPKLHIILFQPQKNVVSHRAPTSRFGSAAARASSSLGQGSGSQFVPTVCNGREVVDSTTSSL

C[C@H](Oc1ccc(F)cc1F)c1ccn2c(CC3CC3)nnc2c1C(F)(F)F [Compound 6, 3-(Cyclopropylmethyl)-7-[(1S)-1-(2,4-difluorophenoxy)ethyl]-8-(trifluoromethyl)[1,2,4]triazolo[4,3-a]pyridine]
EC50 [1]: 0.0407 µM | # protected/# tested ([2]; 6 Hz 32 mA, 1 h): 0/4 | # protected/# tested ([2]; 6 Hz 32 mA, 4 h): 0/4 | # protected/# tested ([2]; dose-response, 6 Hz 32 mA, 0.5 h TPE): 6/8 | # protected/# tested ([2]; dose-response, 6 Hz 44 mA, 0.5 h TPE): 0/8

From patent US9708315B2, “1,2,4-triazolo[4,3-a]pyridine compounds and their use as positive allosteric modulators of MGLUR2 receptors” (Janssen Pharmaceutica NV, priority 2013, dated 2017)
